# System: Human Schwann cells
# Test: Gene expression array and pathway analysis, Schwann cells, LMW-DS 0.01 mg/ml 48 h
# Type: cell-based
# Details: for number of genes: abolished nutrient effect / number of genes: total / number of genes: enhanced response to nutrients / number of genes: new effect induced by LMW-DS / number of genes: not different from control / Activation z-score / Predicted activation state relative D2 control: Schwann cells; for Activation z-score / Predicted activation state relative D2 control: D2 LMW-DS treatment
# Protocol: For each cell line, n=8 × 25 cm^2 culture flasks were set up. Two flasks were harvested for each cell type on the day of treatment (24 hours after seeding). This represents the Day0 time point. From the remaining flasks, three flasks were treated with Control Medium and three were treated with Culture Medium (CM) containing LMW-DS to give a final concentration of 0.01 mg/ml. Cells from the treated flasks were collected after 48 hours. Therefore the collected data represent (a) untreated cells (Day0 Controls and Day2 Controls) and (b) cells treated with LMW-DS (ILB®, Tikomed AB, Viken, Sweden, WO 2016/076780) for 48 hours (Day2 LMW-DS treated).
# Schwann cells growth medium was prepared by adding 10% of fetal bovine serum (FBS) to high-glucose DMEM and pre-warmed to 37° C. Cells were thawed in a 37° C. water bath for no longer than 2 min.
# Cells from 12 vials were each gently transferred to a tube containing 10 ml of high-glucose DMEM medium and centrifuged at 400 relative centrifugal field (RCF) for 10 min. Pellet was re-suspended in culture medium. The cells from the 12 vials were mixed and distributed equally into the previously coated 25 cm^2 flasks (n=8). Cells were incubated at 37° C. with 5% CO2. Cells were allowed to settle for 24 hours before LMW-DS treatment.
# LMW-DS was provided at a stock concentration of 20 mg/ml and was kept in a temperature monitored refrigerator at 4° C. A fresh 100x LMW-DS stock (1.0 mg/ml) was prepared in sterile DMEM-F12. The concentrated drug stock was sterile filtered and added to the respective culture media (19.6 ml CM and 0.4 ml LMW-DS stock solution). The Control was made using 19.6 ml CM and 0.4 ml of DMEM-F12. LMW-DS and CM were added to the respective flasks (5 ml each) to reach the 0.01 mg/ml concentration of LMW-DS in each dish with a total of 10 ml CM each.
# CM was aspirated into a clean and labelled 15 ml Falcon tube. The flasks (without culture medium) were placed into the -80° C. freezer for 30 minutes. The CM in the Falcon tubes was spun at 3000 x g for 5 minutes. Supernatant was removed and the small pellet was re-suspended in 2.5 ml Trizol:Water (4:1) solution at room temperature (RT, ~22° C.).
# Two aliquots of 1 ml lysate were removed from each sample and 200 µl of chloroform was added to each (0.2 ml of chloroform per 1 ml of TRIzol Reagent used during the cell lysis step) and the tube was shaken vigorously. Samples were stored at RT for 2-3 minutes and subsequently centrifuged at 12,000 x g for 15 minutes at 4° C.
# The RNA was precipitated from the aqueous phase by adding an equal amount of 100% ethanol. The precipitated RNA was fixed onto a Spin Cartridge, washed twice and dried. The RNA was eluted in 50 µl warm RNase-Free Water. The amount and quality of the purified RNA was measured by Nanodrop. The RNA was stored at -80° C. before transfer to Source Bioscience for Array analysis.
# The expression data were downloaded into separate files for each cell line. The ‘Background corrected’ expression is the data from the “gProcessedSignal” of the arrays that is the result of the background signal extracted from the actual signal of the relevant probe. This is the most often used variable in array analysis. The background corrected signal was log2 transformed for all samples for statistical analysis. To reduce the false discovery rate in the samples, the signals that were below ‘expression level’ were removed. The ‘below expression’ level was set at 5 for the log2 transformed expression values.
# Based on the expression pattern of the Control probes on each array it was decided to carry out Median Centering for all arrays before analysis to reduce the variability of the results. […]
# [1] = pathway analysis of gene expression
# [2] = upstream regulator HGF (from line above)
substance,measurement,setting,value
sodium salt of dextran sulfate [LMW-DS],attachment-related molecules differentially expressed,,17
same,number of differentially expressed genes,D0 control to D2 LMW-DS treated,1244
same,number of differentially expressed genes,D2 control to D2 LMW-DS treated,700
same,number of genes: abolished nutrient effect,no effect,21
same,number of genes: total,no effect,21
same,number of genes: abolished nutrient effect,significant downregulation,1
same,number of genes: enhanced response to nutrients,significant downregulation,122
same,number of genes: new effect induced by LMW-DS,significant downregulation,352
same,number of genes: not different from control,significant downregulation,42
same,number of genes: total,significant downregulation,517
same,number of genes: abolished nutrient effect,significant upregulation,13
same,number of genes: enhanced response to nutrients,significant upregulation,441
same,number of genes: new effect induced by LMW-DS,significant upregulation,74
same,number of genes: not different from control,significant upregulation,373
same,number of genes: total,significant upregulation,901
same,number of genes: abolished nutrient effect,total,35
same,number of genes: enhanced response to nutrients,total,563
same,number of genes: new effect induced by LMW-DS,total,426
same,number of genes: not different from control,total,415
same,number of genes: total,total,1439
same,"TGFβ-induced effect in adhesion of immune cells, activation and aggregation of cells, fibrosis, self-activation of TGFβ",molecular network analysis,totally abolished
same,Complex III (cytochrome bc1),[1],inhibited
same,activity and/or levels of glutamate transporters (SLC1A2/3),[1],increased
same,genes altered in Control cultures with no changes in LMW-DS treated cultures,two days,21
same,"genes downregulated by growth factors, downregulation stronger with LMW-DS",two days,122
same,"genes downregulated in control cultures, upregulated in LMW-DS treated cultures",two days,13
same,"genes increased in control cultures, downregulated in LMW-DS treated cultures",two days,1
same,"genes upregulated in Control cultures, upregulation stronger with LMW-DS",two days,441
same,Activation z-score,upstream regulator ANGPT2,1.283
same,Predicted activation state relative D2 control,upstream regulator ANGPT2,Activated
same,Activation z-score,upstream regulator BMP2,1.395
same,Predicted activation state relative D2 control,upstream regulator BMP2,Activated
same,Activation z-score,upstream regulator BMP4,0.927
same,Predicted activation state relative D2 control,upstream regulator BMP4,Activated
same,Activation z-score,upstream regulator BMP7,1.86
same,Predicted activation state relative D2 control,upstream regulator BMP7,Activated
same,Activation z-score,upstream regulator EGF,2.059
same,Predicted activation state relative D2 control,upstream regulator EGF,Activated
same,Activation z-score,upstream regulator FGF2,2.37
same,Predicted activation state relative D2 control,upstream regulator FGF2,Activated
same,Activation z-score,upstream regulator GDF2,2.561
same,Predicted activation state relative D2 control,upstream regulator GDF2,Activated
same,Activation z-score,[2],1.432
same,Predicted activation state relative D2 control,[2],Activated
same,Activation z-score,upstream regulator IGF1,1.332
same,Predicted activation state relative D2 control,upstream regulator IGF1,Activated
same,Activation z-score,upstream regulator NRG1,1.768
same,Predicted activation state relative D2 control,upstream regulator NRG1,Activated
same,Activation z-score,upstream regulator NRTN,0.958
same,Predicted activation state relative D2 control,upstream regulator NRTN,Activated
same,Activation z-score,upstream regulator PGF,0.254
same,Predicted activation state relative D2 control,upstream regulator PGF,Activated
same,Activation z-score,upstream regulator TGFβ1,1.05
same,Predicted activation state relative D2 control,upstream regulator TGFβ1,Less inhibited
same,Activation z-score,upstream regulator VEGFA,3.4
same,Predicted activation state relative D2 control,upstream regulator VEGFA,Activated
same,Activation z-score,upstream regulator WISP2,-0.896
same,Predicted activation state relative D2 control,upstream regulator WISP2,Less inhibited
